Experimental data as given in patent US8895502B2, “β2-glycoprotein I peptide inhibitors” (Kansas State University Research Foundation, priority 2010, dated 2014).
Entries after “also recorded” stand apart in the source; their conditions may differ. Ends that are not written are not given here.

Key:
Assay type in all cases: in vivo, mouse
LTB4 = assay: Intestinal IR, ex vivo LTB4 generation; design: key to LTB4 Production: + indicates significant difference from Sham treated mice; − indicates not significantly different from C57B1/6 sham treated mice; +/− indicates no significant difference from either C57B1/6 mice subjected to either Sham or IR; details: for LTB4 Production: C57Bl/6 mice subjected to IR, peptide 40 μM i.v. 5 min prior to artery occlusion; for IR-induced intestinal LTB4 production: C57Bl/6 mice, peptide 40 μM prior to IR
Protocol: (§1) C57Bl/6 and Rag-1^−/− mice were subjected to ischemia followed by reperfusion similar to previously described studies (Moses, T. et al., J. Leukoc. Biol. 86:971-980 (2009)). Briefly, ketamine (16 mg/kg) and xylazine (80 mg/kg) were used to anesthetize the mice. Buprenorphine (0.06 mg/kg) was then administered for pain. A midline laparotomy was performed to expose the abdominal cavity of the mice, which were then allowed to equilibrate for 30 min. Body temperature was maintained at 37° C. using a water-circulating heat pad. Placing a warm, saline moistened piece of gauze over the abdominal cavity prevented peritoneal desiccation. […] Ischemia was noted by the intestine changing from a pink color to a gray color. After 30 min of ischemia, the clamp was removed and the intestines were allowed to reperfuse for 5, 10, 15, or 120 min. […] Mice treated with the various β2-GPI peptides underwent the same procedure with i.v. administration of the peptides (40 μM) 5 min prior to artery occlusion. Peptides 296, 305, and 296Cys to Ser were dissolved in N. Saline (0.9% NaCl) and injected i.v. in 100-μL volumes. Peptides 100 and 181 were dissolved in DMSO prior to diluting 1/100 in N. Saline. Additional mice received peptides prior to Sham treatment.
(§2) Ex vivo generation of eicosanoids by mid-jejunal tissue was determined. Immediately after collection, a 2-cm intestinal section from each mouse was minced, washed, resuspended in 37° C. oxygenated Tyrode's buffer (Sigma-Aldrich; St. Louis, Mo.), incubated at 37° C. for 20 minutes, and the supernatant collected. PGE2 and LTB4 concentrations were determined using enzyme immunoassay kits (Cayman Chemical; Ann Arbor, Mich.). IL-6 and IL-12 concentrations were determined using a Milliplex MAP immunoassay kit (Millipore) and read on a Milliplex Analyzer (Millipore). All eicosanoid and cytokine concentrations were standardized to the total tissue protein content.
(§3) Total peroxidase, LTB4, PGE2, IL-6, IL-12p40, and IL-12p70 concentrations were determined using the procedures described in Example 1.

PGE2 = assay: Intestinal IR, ex vivo PGE2 generation; design: key to PGE2 Production: + indicates significant difference from Sham treated mice; − indicates not significantly different from C57B1/6 sham treated mice; +/− indicates no significant difference from either C57B1/6 mice subjected to either Sham or IR; details: for IR-induced intestinal PGE2 production: C57Bl/6 mice, peptide 40 μM prior to IR
Protocol: C57Bl/6 and Rag-1^−/− mice were subjected to ischemia followed by reperfusion similar to previously described studies (Moses, T. et al., J. Leukoc. Biol. 86:971-980 (2009)). Briefly, ketamine (16 mg/kg) and xylazine (80 mg/kg) were used to anesthetize the mice. Buprenorphine (0.06 mg/kg) was then administered for pain. A midline laparotomy was performed to expose the abdominal cavity of the mice, which were then allowed to equilibrate for 30 min. Body temperature was maintained at 37° C. using a water-circulating heat pad. Placing a warm, saline moistened piece of gauze over the abdominal cavity prevented peritoneal desiccation. […] Ischemia was noted by the intestine changing from a pink color to a gray color. After 30 min of ischemia, the clamp was removed and the intestines were allowed to reperfuse for 5, 10, 15, or 120 min. […] Peptides 296, 305, and 296Cys to Ser were dissolved in N. Saline (0.9% NaCl) and injected i.v. in 100-μL volumes. Peptides 100 and 181 were dissolved in DMSO prior to diluting 1/100 in N. Saline. Additional mice received peptides prior to Sham treatment.
as §2, §3

IL-12 = assay: Intestinal IR, ex vivo IL-12 generation; design: key to IL-12p40 Induction: + indicates significant difference from Sham treated mice; − indicates not significantly different from C57B1/6 sham treated mice; +/− indicates no significant difference from either C57B1/6 mice subjected to either Sham or IR; details: for IL-12p40 Induction: C57Bl/6 mice subjected to IR, peptide 40 μM i.v. 5 min prior to artery occlusion; for IR induced IL-12 production: C57Bl/6 mice, peptide prior to IR
Protocol: as §1, §2, §3

F4/80 = assay: Intestinal IR, F4/80 macrophage marker immunohistochemistry; design: key to F4/80 Deposition: + indicates significant difference from Sham treated mice; − indicates not significantly different from C57B1/6 sham treated mice; +/− indicates no significant difference from either C57B1/6 mice subjected to either Sham or IR; details: for F4/80 Deposition: C57Bl/6 mice subjected to IR, peptide 40 μM i.v. 5 min prior to artery occlusion; for expression of the mature macrophage marker (F4/80) after IR: C57Bl/6 mice, peptide prior to IR
Protocol: as §1
(§4) After euthanasia, an additional 2-cm intestinal section from each mouse was immediately snap frozen in O.C.T. freezing medium and 8 μm sections were placed on slides for immunohistochemistry. The C3 deposition and F4/80 expression on the tissue sections were detected by staining with a purified rat-anti-mouse C3 (Hycult Biotechnologies; Plymouth Meeting, Pa.) or F4/80 (eBioscience; San Diego, Calif.) antibody followed by a Texas-red conjugated donkey-anti-rat IgG secondary antibody (Jackson Immunoresearch). CD31 (PECAM-1) and CD106 (VCAM-1) were detected by FITC conjugated rat anti-mouse CD31 or CD106 (Biolegend; San Diego, Calif.) antibodies. Each experiment contained serial sections stained with the appropriate isotype control antibodies. All slides were mounted with ProLong Gold (Invitrogen). Images were obtained at room temperature using a Nikon Eclipse 80i microscope equipped with a CoolSnap CF camera (Photometrics) and analyzed using Metavue software (Molecular Devices). The fluorescence was semi-quantitated using Image J software (NIH) using the fluorescent area fraction after setting threshold for each experiment. The average of the isotype control was subtracted from each photo.

CD106 (VCAM-1) = assay: Intestinal IR, VCAM immunohistochemistry; details: C57Bl/6 mice, peptide prior to IR, data not shown
Protocol: as §1, with “Peptides 100 and 181 were dissolved in DMSO prior to diluting 1/100 in N. Saline. Additional mice received peptides prior to Sham treatment.” left out
as §4, with “Each experiment contained serial sections stained with the appropriate isotype control antibodies. All slides were mounted with ProLong Gold (Invitrogen).” left out, “The average of the isotype control was subtracted from each photo.” left out

[1] = C57Bl/6 mice subjected to IR, peptide 40 μM i.v. 5 min prior to artery occlusion
[2] = 10 μM peptide 5 min prior to IR
[3] = administered at 15 min post-reperfusion

Substance | LTB4 Production (LTB4) | IR-induced intestinal LTB4 production (LTB4) | PGE2 Production (PGE2; [1]) | IR-induced intestinal PGE2 production (PGE2) | IL-12p40 Induction (IL-12) | F4/80 Deposition (F4/80) | expression of the mature macrophage marker (F4/80) after IR (F4/80) | PGE2 Production (PGE2; [2]) | PGE2 Production (PGE2; [3]) | IR induced IL-12 production (IL-12) | expression of adhesion molecule VCAM after IR (CD106 (VCAM-1))
H-KNISFACNPGFFLNG-NH2 [peptide 100, 16, reference compound] | + | sustained inflammation similar to untreated mice | + | sustained inflammation similar to untreated mice | +/− | + | reduced macrophage to Sham levels |  |  |  | 
H-IHFYSKNKEKKSSYTVEAHSRDGTI-OH [peptide 296Cys-Ser] | − | attenuated; also recorded: blocked | − | attenuated; also recorded: blocked | − | − | reduced macrophage to Sham levels | optimally attenuated | attenuated | attenuated; also recorded: inhibit | inhibited
H-KKCSYTVEAHCRDGTIEIPSCFKEHS-OH (cysteine pairing not given here) [peptide 305, 10] | + | did not attenuate | +/− | did not attenuate; also recorded: but not eicosanoid production | − | − | reduced macrophage to Sham levels | optimally attenuated | attenuated | attenuated; also recorded: inhibited | inhibited
H-IHFYCKNKEKKCSYTVEAHCRDGTI-OH (cysteine pairing not given here) [peptide 296] | − | attenuated; also recorded: blocked | − | attenuated; also recorded: blocked | − | − | reduced macrophage to Sham levels |  |  | attenuated; also recorded: inhibit | inhibited
H-IPSCFKEHSSLAFWKTDASELTPC-NH2 (cysteine pairing not given here) [peptide 322, 18] | + | sustained inflammation similar to untreated mice | + | sustained inflammation similar to untreated mice | + | + | increased in response to IR |  |  | did not inhibit | 
